Biological target: T1, Progesterone receptor (Homo sapiens) (UniProt P06401)
T1 sequence (whole entry): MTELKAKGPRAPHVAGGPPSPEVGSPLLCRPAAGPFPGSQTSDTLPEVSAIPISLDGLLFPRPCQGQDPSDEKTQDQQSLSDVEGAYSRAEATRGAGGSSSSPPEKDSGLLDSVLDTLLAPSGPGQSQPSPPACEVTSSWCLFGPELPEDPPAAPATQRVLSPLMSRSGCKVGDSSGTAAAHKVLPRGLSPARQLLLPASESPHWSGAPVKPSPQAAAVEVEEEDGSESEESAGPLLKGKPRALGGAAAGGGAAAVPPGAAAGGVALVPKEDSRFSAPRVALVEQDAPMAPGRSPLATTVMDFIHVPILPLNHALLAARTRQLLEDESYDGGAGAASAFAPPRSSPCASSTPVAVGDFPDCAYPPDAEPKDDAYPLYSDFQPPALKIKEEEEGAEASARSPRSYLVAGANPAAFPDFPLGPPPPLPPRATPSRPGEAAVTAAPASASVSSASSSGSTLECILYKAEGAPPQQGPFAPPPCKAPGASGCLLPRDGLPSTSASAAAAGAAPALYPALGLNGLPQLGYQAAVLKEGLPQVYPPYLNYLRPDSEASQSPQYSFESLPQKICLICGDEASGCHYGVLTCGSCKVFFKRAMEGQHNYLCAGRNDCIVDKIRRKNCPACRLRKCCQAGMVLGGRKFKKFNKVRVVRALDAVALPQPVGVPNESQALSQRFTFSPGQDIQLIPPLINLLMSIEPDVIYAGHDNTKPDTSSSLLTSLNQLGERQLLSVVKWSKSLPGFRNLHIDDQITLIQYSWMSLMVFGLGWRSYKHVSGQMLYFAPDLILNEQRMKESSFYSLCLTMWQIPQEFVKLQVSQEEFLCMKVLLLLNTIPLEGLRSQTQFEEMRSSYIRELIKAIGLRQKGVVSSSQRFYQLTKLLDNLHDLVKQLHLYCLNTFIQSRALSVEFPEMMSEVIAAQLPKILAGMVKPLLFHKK
Assay: Relative Binding affinity(RBA) to human progesterone receptor(PR) compared to PF1092A; (RBA= IC50 of PF1092A/ IC50 of test compound at human PR)

Structure (SMILES) | relative binding affinity (RBA)
CC(=O)O[C@H]1[C@@H](O)C=C2C=C3OC(=O)C(C)=C3C[C@]2(C)[C@H]1C | 1
CC(=O)O[C@H]1CC=C2C=C3OC(=O)C(C)=C3C[C@]2(C)[C@H]1C | 0.8
CC(=O)O[C@H]1CC=C2C=C3OC(=O)C(C)=C3C[C@]2(C)C1 | 0.08
CC(=O)O[C@H]1CC=C2C=C3OC(=O)C=C3C[C@]2(C)[C@H]1C | 1.2
CO[C@H]1[C@@H](OC(C)=O)CC=C2C=C3OC(=O)C(C)=C3C[C@@]21C | 0.7
CC(=O)O[C@H]1CC=C2C(C)=C3OC(=O)C(C)=C3C[C@]2(C)[C@H]1C | 0.07
CCC1=C2C[C@@]3(C)C(=CC[C@H](OC(C)=O)[C@@H]3C)C=C2OC1=O | 0.2
CC(=O)O[C@H]1[C@H](C)C=C2C=C3OC(=O)C(C)=C3C[C@]2(C)[C@H]1C | 1.6
CC(=O)O[C@H]1CC=C2C=C3OC(=O)C(C)=C3[C@H](C)[C@]2(C)[C@H]1C | 0.8

— ChEMBL document CHEMBL1131773, “Synthesis and structure-activity relationships of new non-steroidal progesterone receptor ligands” (Bioorg Med Chem Lett, 1999)
